Test results as given in patent EP1157985A1 (G.D. SEARLE & CO., priority 1996, dated 1997).
Where a name gives a salt, the structure may show the parent alone. Read-outs that look alike come from different tables or passages of the source.

Assays:
[1] = biological target: T1, Human vitronectin receptor (αvβ3) (Homo sapiens, UniProt P05106+P06756); experiment: Vitronectin adhesion assay (solid phase receptor assay, competition with biotinylated vitronectin); format: binding
T1 construct: Human vitronectin receptor (αvβ3) was purified from human placenta; from tissue; host or cells: human placenta
Method: VITRONECTIN ADHESION ASSAY
Human vitronectin receptor (αvβ3) was purified from human placenta as previously described [Pytela et al., Methods in Enzymology, 144:475-489 (1987)]. Human vitronectin was purified from fresh frozen plasma as previously described [Yatohgo et al., Cell Structure and Function, 13:281-292 (1988)]. Biotinylated human vitronectin was prepared by coupling NHS-biotin from Pierce Chemical Company (Rockford, IL) to purified vitronectin as previously described [Charo et al., J. Biol. Chem., 266(3):1415-1421 (1991)]. Assay buffer, OPD substrate tablets, and RIA grade BSA were obtained from Sigma (St. Louis, MO). Anti-biotin antibody was obtained from Calbiochem (La Jolla, CA). Linbro microtiter plates were obtained from Flow Labs (McLean, VA). ADP reagent was obtained from Sigma (St. Louis, MO).
This assay was essentially the same as previously reported [Niiya et al., Blood, 70:475-483 (1987)]. The purified human vitronectin receptor (αvβ3) was diluted from stock solutions to 1.0 µg/mL in Tris-buffered saline containing 1.0 mM Ca^++, Mg^++, and Mn^++, pH 7.4 (TBS^+++). The diluted receptor was immediately transferred to Linbro microtiter plates at 100 µL/well (100 ng receptor/well). The plates were sealed and incubated overnight at 4°C to allow the receptor to bind to the wells. All remaining steps were at room temperature. The assay plates were emptied and 200 µL of 1% RIA grade BSA in TBS^+++ (TBS^+++/BSA) were added to block exposed plastic surfaces. Following a 2 hour incubation, the assay plates were washed with TBS^+++ using a 96 well plate washer. Logarithmic serial dilution of the test compound and controls were made starting at a stock concentration of 2 mM and using 2 nM biotinylated vitronectin in TBS^+++/BSA as the diluent. This premixing of labeled ligand with test (or control) ligand, and subsequent transfer of 50 µL aliquots to the assay plate was carried out with a CETUS Propette robot; the final concentration of the labeled ligand was 1 nM and the highest concentration of test compound was 1.0 x 10^-4 M. The competition occurred for two hours after which all wells were washed with a plate washer as before. Affinity purified horseradish peroxidase labeled goat anti-biotin antibody was diluted 1:3000 in TBS^+++/BSA and 125 µL were added to each well. After 30 minutes, the plates were washed and incubated with OPD/H2O2 substrate in 100 mM/L Citrate buffer, pH 5.0. The plate was read with a microtiter plate reader at a wavelength of 450 nm and when the maximum-binding control wells reached an absorbance of about 1.0, the final A450 were recorded for analysis. The data were analyzed using a macro written for use with the EXCEL™ spreadsheet program. The mean, standard deviation, and %CV were determined for duplicate concentrations. The mean A450 values were normalized to the mean of four maximum-binding controls (no competitor added)(B-MAX). The normalized values were subjected to a four parameter curve fit algorithm [Rodbard et al., Int.

[2] = biological target: T2, Human fibrinogen receptor (αIIbβ3) (Homo sapiens, UniProt P05106+P08514); experiment: Purified IIb/IIIa receptor assay (solid phase receptor assay, competition with biotinylated vitronectin); format: binding; settings: purified receptor from outdated platelets; 1 nM biotinylated vitronectin; highest concentration tested 1.0 x 10^-4 M
T2 construct: Human fibrinogen receptor (αIIbβ3) was purified from outdated platelets; from tissue; host or cells: outdated (human) platelets
From the text: PURIFIED IIb/IIIa RECEPTOR ASSAY
Human fibrinogen receptor (αIIbβ3) was purified from outdated platelets. (Pytela, R., Pierschbacher, M.D., Argraves, S., Suzuki, S., and Rouslahti, E. "Arginine-Glycine-Aspartic acid adhesion receptors", Methods in Enzymology 144(1987):475-489.) Human vitronectin was purified from fresh frozen plasma as described in Yatohgo, T., Izumi, M., Kashiwagi, H., and Hayashi, M., "Novel purification of vitronectin from human plasma by heparin affinity chromatography," Cell Structure and Function 13(1988):281-292. Biotinylated human vitronectin was prepared by coupling NHS-biotin from Pierce Chemical Company (Rockford, IL) to purified vitronectin as previously described. (Charo, I.F., Nannizzi, L., Phillips, D.R., Hsu, M.A., Scarborough, R.M., "Inhibition of fibrinogen binding to GP IIb/IIIa by a GP IIIa peptide", J. Biol. Chem. 266(3)(1991): 1415-1421.) Assay buffer, OPD substrate tablets, and RIA grade BSA were obtained from Sigma (St. Louis, MO). Anti-biotin antibody was obtained from Calbiochem (La Jolla, CA). Linbro microtiter plates were obtained from Flow Labs (McLean, VA). ADP reagent was obtained from Sigma (St. Louis, MO).
This assay is essentially the same reported in Niiya, K., Hodson, E., Bader, R., Byers-Ward, V. Koziol, J.A., Plow, E.F. and Ruggeri, Z.M., "Increased surface expression of the membrane glycoprotein IIb/IIIa complex induced by platelet activation: Relationships to the binding of fibrinogen and platelet aggregation", Blood 70(1987):475-483. The purified human fibrinogen receptor (αIIbβ3) was diluted from stock solutions to 1.0 µg/mL in Tris-buffered saline containing 1.0 mM Ca^++, Mg^++, and Mn^++, pH 7.4 (TBS^+++). The diluted receptor was immediately transferred to Linbro microtiter plates at 100 µL/well (100 ng receptor/well). The plates were sealed and incubated overnight at 4°C to allow the receptor to bind to the wells. All remaining steps were at room temperature. The assay plates were emptied and 200 µL of 1% RIA grade BSA in TBS^+++ (TBS^+++/BSA) were added to block exposed plastic surfaces. Following a 2 hour incubation, the assay plates were washed with TBS^+++ using a 96 well plate washer. Logarithmic serial dilution of the test compound and controls were made starting at a stock concentration of 2 mM and using 2 nM biotinylated vitronectin in TBS^+++/BSA as the diluent. This premixing of labeled ligand with test (or control) ligand, and subsequent transfer of 50 µL aliquots to the assay plate was carried out with a CETUS Propette robot; the final concentration of the labeled ligand was 1 nM and the highest concentration of test compound was 1.0 x 10^-4 M. The competition occurred for two hours after which all wells were washed with a plate washer as before. Affinity purified horseradish peroxidase labeled goat anti-biotin antibody was diluted 1:3000 in TBS^+++/BSA and 125 µL were added to each well. After 30 minutes, the plates were washed and incubated with […] substrate in 100 mM/L citrate buffer, pH 5.0. The plate was read with a microtiter plate reader at a wavelength of 450 nm and when the maximum-binding control wells reached an absorbance of about 1.0, the final A450 were recorded for analysis. The data were analyzed using a macro written for use with the EXCEL™ spreadsheet program. The mean, standard deviation, and %CV were determined for duplicate concentrations. The mean A450 values were normalized to the mean of four maximum-binding controls (no competitor added)(B-MAX). The normalized values were subjected to a four parameter curve fit algorithm, [Robard et al., Int. […]

[3] = purified receptor from human placenta, 1 nM biotinylated vitronectin, highest concentration tested 1.0 x 10^-4 M, read-out: AvB3 IC50

Row | Compound | IC50 [1, 3] [nM] | IC50 [2] [nM] | IC50 [1] [nM]
1 | CC(Oc1ccc(NC(=O)c2cccc(NC(=N)N)c2)cc1)C(=O)O (centres unmarked) [Example 85, 2-[4-[[[3-[(aminoiminomethyl)amino]phenyl]. carbonyl]amino]phenoxy]propanoic acid, trifluoroacetate salt] | 827 | 12600 | –
2 | COC(=O)C(C)Oc1ccc(NC(=O)c2cccc(NC(=N)N)c2)cc1 (centres unmarked) [Example 85C] | 39600 | 66000 | –
3 | N=C(N)Nc1cccc(C(=O)Nc2ccc(OC(C(=O)O)c3ccccc3)cc2)c1 (stereo not drawn) [Example 86, α-[4-[[[3-[(aminoiminomethyl)amino]phenyl]carbonyl]amino]phenoxy]benzeneacetic acid, trifluoroacetate salt] | 307 | 3140 | –
4 | CCOC(=O)COc1ccc(NC(=O)c2cccc(NC(=N)N)c2)cc1 [Example 89, ethyl [4-[[[3-[(aminoiminomethyl)amino]phenyl]carbonyl]amino]phenoxy]acetate, trifluoroacetate salt] | 2070 | 16000 | –
5 | NC(N)=Nc1cccc(C(=O)Nc2ccc(CCC(=O)O)c(C(=O)O)c2)c1 [Example 101A, 4-[[[3-[(aminoiminomethyl)amino]phenyl]carbonyl]-amino]-2-carboxybenzenepropanoic acid, bis(trifluoroacetate) salt] | 9 | 57 | –
6 | COC(=O)c1cc(NC(=O)c2cccc(NC(=N)N)c2)ccc1CCC(=O)O [Example 101B, 4-[[[3-[(aminoiminomethyl)amino]phenyl]carbonyl]-amino]-2-methoxycarbonyl)benzenepropanoic acid, bis(trifluoroacetate) salt] | 35 | 286 | –
7 | O=C(O)CCc1ccc(NC(=O)c2cccc(NC3=NCCCN3)c2)cc1C(=O)O [Example 102, 2-carboxy-4-[[[3-[(1,4,5,6-tetrahydropyrimidin-2-yl)-amino]phenyl]carbonyl]amino]benzenepropanoic acid, trifluoroacetate salt] | 6 | 4710 | –
8 | CC(C)OC(=O)NC(Cc1ccc(NC(=O)c2cccc(NC(N)=NC(N)=O)c2)cc1)C(=O)O (centres unmarked) [Example 105, 4-[[[3-[[amino[(aminocarbonyl)imino]methyl]-amino]phenyl]carbonyl]amino]-N-[(1-methylethoxy]carbonyl]phenylalanine, bis(trifluoroacetate) salt] | 2 | 267 | –
9 | CC(C)CC(=O)NC(Cc1ccc(NC(=O)c2cccc(NC(=N)N)c2)cc1)C(=O)O (centres unmarked) [Example 106, 4-[[[3-[(aminoiminomethyl]amino]phenyl]-carbonyl]amino]-N-[(3-methyl-1-oxobutyl)-phenylalanine, bis(trifluoroacetate) salt] | – | 77 | 5
10 | CC(C)CC(=O)N[C@@H](Cc1ccc(NC(=O)c2cc(NC3=NCCCN3)cc(C(F)(F)F)c2)cc1)C(=O)O [Example 107, N-(3-methyl-1-oxobutyl)-4-[[[3-[(1,4,5,6-tetrahydro-pyrimidin-2-yl)amino]-5-(trifluoromethyl)phenyl]-carbonyl]amino]phenylalanine, trifluoroacetate salt] | 0.5 | 1570 | –
11 | CC(C)CC(=O)NC(Cc1ccc(NC(=O)c2cc(NC(=N)N)cc(C(F)(F)F)c2)cc1)C(=O)O (centres unmarked) [Example 108, 4-[[[3-[(aminoiminomethyl)amino]-5-(trifluoromethyl)-phenyl]carbonyl]amino]-N-(3-methyl-1-oxobutyl) phenylalanine, trifluoroacetate salt] | 4 | 109 | –
12 | O=C(Nc1ccc(C[C@H](NS(=O)(=O)c2ccccc2)C(=O)O)cc1)c1cccc(NC2=NCCCN2)c1 [Example 111, N-(phenylsulfonyl)-4-[[[3-[(1,4,5,6-tetrahydro-pyrimidin-2-yl)amino]phenyl]carbonyl]amino]-phenylalanine, trifluoroacetate salt] | 0.1 | 6 | –
13 | O=C(Nc1ccc(CC(NS(=O)(=O)c2ccccc2)C(=O)O)cc1)c1cccc(NC2=NCCN2)c1 (centres unmarked) [Example 112, 4-[[[3-[(4,5-dihydro-1H-imidazol-2-yl)amino]phenyl]-carbonyl]amino-N-(phenylsulfonyl)phenylalanine, trifluoroacetate salt] | 0.3 | 13 | –
14 | COc1cc(NC(=O)c2cccc(NC3=NCCCN3)c2)ccc1C[C@H](NC(=O)OC(C)C)C(=O)O [Example 114, 2-methoxy-N-[(1-methylethoxy)carbonyl]-4-[[[3-[(1,4,5,6-tetrahydropyrimidin-2-yl)amino]-phenyl]-carbonyl]amino]phenylalanine, trifluoroacetate salt] | 0.2 | 1000 | –
15 | COc1cc(NC(=O)c2cccc(NC(=N)N)c2)ccc1CCC(=O)O [Example 115, 4-[[[3-(aminoiminomethyl)amino]phenyl]-carbonyl]amino]-2-methoxybenzenepropanoic acid, trifluoroacetate salt] | 24 | 173 | –
16 | COc1cc(NC(=O)c2cccc(NC3=NCCCN3)c2)ccc1CCC(=O)O [Example 116, 2-methoxy-4-[[[3-[(1,4,5,6-tetrahydropyrimidin-2-yl)amino]phenyl]carbonyl]amino]benzenepropanoic acid, trifluoroacetate salt] | 6 | 3180 | –
